Like-named read-outs stand apart in the source and are kept apart here.

Test [1] has as its system protein-ligand complexes in the PDB. Particulars: experimental binding affinity, cited from earlier work.
For a further test, the system named is Glur2 receptors. The following applies: series of Glur2 receptors; cited from earlier work.
A further test deals with Streptavidin (Streptomyces avidinii, UniProt P22629). Description: Calculated versus experimental binding affinity, streptavidin and biotin (pdb 1stp), docked structure. Particulars: using a docked structure. An excerpt: FIG. 8 illustrates Streptavidin in biotin (pdb 1stp). Both special hydrogen bonds in this complex, and hydrophobic enclosure of the hydrogen bonding region, are shown.
Streptavidin, sequence (P22629 25-183): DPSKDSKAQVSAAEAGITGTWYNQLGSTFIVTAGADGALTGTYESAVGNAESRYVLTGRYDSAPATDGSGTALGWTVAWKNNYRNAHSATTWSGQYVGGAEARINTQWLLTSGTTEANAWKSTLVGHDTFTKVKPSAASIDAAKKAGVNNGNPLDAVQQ
Here three correlated hydrogen bonds occur in a hydrophobically enclosed region. Up to the present time, no empirical scoring function has explained the exceptionally large binding affinity of streptavidin in biotin. Once the triple, enclosed hydrogen bonding motif is recognized and assigned an appropriate score, the deviation between calculated and experimental binding affinity, using a docked structure, is only 1.5 kcal/mole.

The next test deals with aldose reductase (Homo sapiens, UniProt P15121). Particulars: lef3 structure of aldose reductase; cited from earlier work.
Where [2] appears, read: column beside SP Score (repeat).

Consider `Nc1c2c(nc3ccccc13)CCCC2` [1acj], for which the ΔG_exp in test [1] (setting [2]) and in test [1] (column beside XP Score) was -10 kcal/mol each time.

Regarding `CNC(=O)C(F)(F)C(O)(O)[C@H](CC(C)C)NC(=O)[C@@H](NC(=O)[C@@H](NC(=O)CC(C)C)C(C)C)C(C)C` [1apv], the ΔG_exp in test [1] (setting [2]) and in test [1] (column beside XP Score) was -11.3 kcal/mol throughout.

On to `N=C(N)c1ccccc1` [1bra], for which the ΔG_exp in test [1] (setting [2]) and in test [1] (column beside XP Score) was -2.5 kcal/mol in each case.

Consider `CC(C)c1ccc(NC(=O)[C@H](Cc2ccccc2)NC(=O)[C@H](CCCCN)NC(=O)C(F)(F)F)cc1` [1elc], for which the ΔG_exp in test [1] (setting [2]) and in test [1] (column beside XP Score) was -9.8 kcal/mol in each case.

With `CC(=O)N[C@H](C(=O)N[C@@H](Cc1ccccc1)[C@@H](O)CN(CC1CCCCC1)NC(=O)[C@@H](NC(C)=O)C(C)C)C(C)C` [1hih], the ΔG_exp in test [1] (setting [2]) and in test [1] (column beside XP Score) was -11.3 kcal/mol throughout.

As to `CC1(C)S[C@H]([C@H](NC(=O)Cc2ccccc2)C(=O)NCc2ccccc2)N[C@H]1C(=O)N[C@@H](CO)Cc1ccccc1` [1htf], the ΔG_exp in test [1] (setting [2]) and in test [1] (column beside XP Score) was -11.1 kcal/mol each time.

For the compound `CC(=O)N[C@H]1[C@H]([C@H](O)[C@H](O)CO)OC(C(=O)O)=C[C@@H]1O` [1nnb], the ΔG_exp in test [1] (setting [2]) and in test [1] (column beside XP Score) was -7.2 kcal/mol in each case.

Consider `O=C(O)[C@H](O)[C@@H](O)[C@H](O)[C@H](O)COP(=O)(O)O` [1pgp], for which the ΔG_exp in test [1] (setting [2]) and in test [1] (column beside XP Score) was -7.8 kcal/mol in each case.

Regarding `Cc1ccc(S(=O)(=O)N[C@@H](Cc2cccc(C(=N)N)c2)C(=O)N2CCCCC2)cc1` [1pph], the ΔG_exp in test [1] (setting [2]) and in test [1] (column beside XP Score) was -8.5 kcal/mol in each case.

`COC(=O)[C@H](Cc1ccccc1)OP(=O)(O)[C@H](CC(C)C)NC(=O)[C@@H](NC(=O)[C@@H](NC(=O)CC(C)C)C(C)C)C(C)C` [1ppl]: the ΔG_exp in test [1] (setting [2]) and in test [1] (column beside XP Score) was -11.5 kcal/mol each time.

Regarding `CC(C)C[C@H](N[C@@H](CCc1ccccc1)C(=O)O)C(=O)N[C@@H](Cc1c[nH]c2ccccc12)C(=O)O` [1tmn], the ΔG_exp in test [1] (setting [2]) and in test [1] (column beside XP Score) was -10 kcal/mol each time.

Take `NCC1CCCCC1` [1tng]: the ΔG_exp in test [1] (setting [2]) and in test [1] (column beside XP Score) was -4 kcal/mol throughout.

Consider `NCCCCc1ccccc1` [1tni], for which the ΔG_exp in test [1] (setting [2]) and in test [1] (column beside XP Score) was -2.3 kcal/mol each time.

Turning to `CC12CCC(CC1=O)C2(C)C` (centres unmarked) [2cpp], the ΔG_exp in test [1] (setting [2]) and in test [1] (column beside XP Score) was -8.3 kcal/mol in each case.

`O=C(O)[C@@H](O)Cc1ccccc1` [2ctc]: the ΔG_exp in test [1] (setting [2]) and in test [1] (column beside XP Score) was -5.3 kcal/mol in each case.

Consider `CN(Cc1cnc2nc(N)nc(N)c2n1)c1ccc(C(=O)N[C@@H](CCC(=O)O)C(=O)O)cc1` [4dfr], for which the ΔG_exp in test [1] (setting [2]) and in test [1] (column beside XP Score) was -13.2 kcal/mol each time.

Regarding `O=C(N[C@H]1c2ccccc2C[C@H]1O)[C@H](Cc1ccccc1)CC(O)C[C@@H](Cc1ccccc1)C(=O)N[C@H]1c2ccccc2C[C@H]1O` [4phv], the ΔG_exp in test [1] (setting [2]) and in test [1] (column beside XP Score) was -12.5 kcal/mol in each case.

Consider `CC(C)C[C@H](N)C(=O)NO` [4tln], for which the ΔG_exp in test [1] (setting [2]) and in test [1] (column beside XP Score) was -5.1 kcal/mol in each case.

With `C[C@H]1O[C@H](O)[C@H](O)[C@@H](O)[C@H]1O` [7abp], the ΔG_exp in test [1] (setting [2]) and in test [1] (column beside XP Score) was -8.1 kcal/mol throughout.

Regarding `N[C@@H](CCC(=O)O)C(=O)O` [Ligand 1ftj], in the test with Glur2 receptors, the ΔG (experimental binding energies) is 8.5 kcal/mol.

With `O=c1[nH]c2cc([N+](=O)[O-])c([N+](=O)[O-])cc2[nH]c1=O` [Ligand 1ftl], the ΔG (experimental binding energies) in the test with Glur2 receptors is 8.3 kcal/mol.

With `Cc1o[nH]c(=O)c1C[C@H](N)C(=O)O` [Ligand 1ftm], in the test on Glur2 receptors, the ΔG (experimental binding energies) is 8.8 kcal/mol.

In the case of `N[C@@H](Cn1cc(F)c(=O)[nH]c1=O)C(=O)O` [Ligand 1mqi], the ΔG (experimental binding energies) with Glur2 receptors is 11.9 kcal/mol.

For the compound `O=C(O)CCCC[C@@H]1SC[C@@H]2NC(=O)N[C@@H]21` [biotin], the “deviation between calculated and experimental binding affinity” value at Streptavidin was 1.5 kcal/mol.

Consider `NC(=O)[C@@H]1C[C@]2(NC(=O)NC2=O)c2cc(F)ccc2O1` [fiderestat], for which, at aldose reductase, the binding affinity experimentally result is “low nanomolar”.
